Measured values as given in PubChem BioAssay AID2060356 (Molecular Pharmacology Branch, DTP, NCI, 2025).
pIC50: −log10 of the molar value. “And” between values parts separate entries of the source, which are not always exact repeats. Equal entries are not always repeated.

System: PDC tumor spheroids with HUVEC/MSC, viability
Assay: Anticancer human tumor 439559-082-T-J2-PDC patient-derived colon adenocarcinoma cell line growth inhibition [TAK]
Conditions: for viability, T/C: stronger effect = lower value
Summary of the method: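 Spheroids of 60% malignant cells, 25% HUVEC and 15% hMSC were exposed to targeted agents combined with TAK-243 or ipatasertib. Concentrations started at or near clinical Cmax (10 microM if unknown) and descended in half-log steps.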

[1] = curve of first compound, second compound 0.3 µM
[2] = curve of first compound, second compound 0.949 µM
[3] = curve of first compound, second compound 3 µM
[4] = curve of first compound, second compound 9.49 µM
[5] = curve of first compound, second compound 30 µM
[6] = second compound 0.3 µM, first compound 0.316 µM
[7] = second compound 0.3 µM, first compound 1 µM
[8] = second compound 0.3 µM, first compound 3.16 µM
[9] = second compound 0.3 µM, first compound 10 µM
[10] = second compound 0.949 µM, first compound 0.316 µM
[11] = second compound 0.949 µM, first compound 1 µM
[12] = second compound 0.949 µM, first compound 3.16 µM
[13] = second compound 0.949 µM, first compound 10 µM
[14] = second compound 3 µM, first compound 0.316 µM
[15] = second compound 3 µM, first compound 1 µM
[16] = second compound 3 µM, first compound 3.16 µM
[17] = second compound 3 µM, first compound 10 µM
[18] = second compound 9.49 µM, first compound 0.316 µM
[19] = second compound 9.49 µM, first compound 1 µM
[20] = second compound 9.49 µM, first compound 3.16 µM
[21] = second compound 9.49 µM, first compound 10 µM
[22] = second compound 30 µM, first compound 0.316 µM
[23] = second compound 30 µM, first compound 1 µM
[24] = second compound 30 µM, first compound 3.16 µM
[25] = second compound 30 µM, first compound 10 µM
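Also: spheroids exposed to drugs for seven days before readout.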

For `CCCS(=O)(=O)Nc1ccc(F)c(C(=O)c2c[nH]c3ncc(-c4ccc(Cl)cc4)cc23)c1F` + CC(C)NCC(C(=O)N1CCN(c2ncnc3c2C(C)CC3O)CC1)c1ccc(Cl)cc1, the pIC50 [1] was < 4.00, the pIC50 [2] was < 4.00 and the pIC50 [3] was < 4.00. For the same molecule, the pIC50 [4] was < 4.00, the pIC50 [5] was 4.61 and the viability, T/C [6] was 117%. It also gave a viability, T/C [7] of 103%, a viability, T/C [8] of 100% and a viability, T/C [9] of 91.5%. It also gave a viability, T/C (second compound 0.3 µM, first compound 31.6 µM) of 93.4%, a viability, T/C (second compound 0.3 µM, first compound 100 µM) of 106% and a viability, T/C [10] of 122%. For the same molecule, the viability, T/C [11] was 99.1%, the viability, T/C [12] was 94.6% and the viability, T/C [13] was 86.2%. For the same molecule, the viability, T/C (second compound 0.949 µM, first compound 31.6 µM) was 21.8%, the viability, T/C (second compound 0.949 µM, first compound 100 µM) was 100% and the viability, T/C [14] was 108%. It also gave a viability, T/C [15] of 107%, a viability, T/C [16] of 88.3% and a viability, T/C [17] of 76%. It also gave a viability, T/C (second compound 3 µM, first compound 31.6 µM) of 51.6%, a viability, T/C (second compound 3 µM, first compound 100 µM) of 94.6% and a viability, T/C [18] of 96.6%. For the same molecule, the viability, T/C [19] was 101%, the viability, T/C [20] was 80.1% and the viability, T/C [21] was 72.5%. The viability, T/C (second compound 9.49 µM, first compound 31.6 µM) was 8.73%, the viability, T/C (second compound 9.49 µM, first compound 100 µM) was 88.5% and the viability, T/C [22] was 87.9%. For the same molecule, the viability, T/C [23] was 94.6%, the viability, T/C [24] was 84.8% and the viability, T/C [25] was 71.7%. It also gave a viability, T/C (second compound 30 µM, first compound 31.6 µM) of 1.55% and a viability, T/C (second compound 30 µM, first compound 100 µM) of 86.9%.

`CCCS(=O)(=O)Nc1ccc(F)c(C(=O)c2c[nH]c3ncc(-c4ccc(Cl)cc4)cc23)c1F` was tested, and the viability, T/C (compound 0.316 µM) was 114% and 106%, the viability, T/C (compound 1 µM) was 109% and 102% and the viability, T/C (compound 3.16 µM) was 97.3% and 102%. The viability, T/C (compound 10 µM) was 87.2% and 71.7%, the viability, T/C (compound 31.6 µM) was 103% and 94.9% and the viability, T/C (compound 100 µM) was 93.9% and 95.7%. The pIC50 (curve of compound) was < 4.00.

`CC(C)(C)c1nc(-c2cccc(NS(=O)(=O)c3c(F)cccc3F)c2F)c(-c2ccnc(N)n2)s1` was tested, and the viability, T/C (compound 0.0316 µM) was 114% and 120%, the viability, T/C (compound 0.1 µM) was 109% and the viability, T/C (compound 0.316 µM) was 118% and 108%. The viability, T/C (compound 1 µM) was 108% and 104%, the viability, T/C (compound 3.16 µM) was 120% and 102% and the viability, T/C (compound 10 µM) was 101% and 98%. For the same molecule, the pIC50 (curve of compound) was < 5.00.

For `CC(C)(C)c1nc(-c2cccc(NS(=O)(=O)c3c(F)cccc3F)c2F)c(-c2ccnc(N)n2)s1` + CC(C)NCC(C(=O)N1CCN(c2ncnc3c2C(C)CC3O)CC1)c1ccc(Cl)cc1, the pIC50 [1] was < 5.00, the pIC50 [2] was < 5.00 and the pIC50 [3] was < 5.00. The pIC50 [4] was < 5.00, the pIC50 [5] was < 5.00 and the viability, T/C (second compound 0.3 µM, first compound 0.0316 µM) was 123%. The viability, T/C (second compound 0.3 µM, first compound 0.1 µM) was 108%, the viability, T/C [6] was 106% and the viability, T/C [7] was 110%. For the same molecule, the viability, T/C [8] was 113%, the viability, T/C [9] was 96.3% and the viability, T/C (second compound 0.949 µM, first compound 0.0316 µM) was 108%. For the same molecule, the viability, T/C (second compound 0.949 µM, first compound 0.1 µM) was 113%, the viability, T/C [10] was 102% and the viability, T/C [11] was 111%. The viability, T/C [12] was 106%, the viability, T/C [13] was 96.2% and the viability, T/C (second compound 3 µM, first compound 0.0316 µM) was 104%. It also gave a viability, T/C (second compound 3 µM, first compound 0.1 µM) of 107%, a viability, T/C [14] of 106% and a viability, T/C [15] of 96.9%. It also gave a viability, T/C [16] of 103%, a viability, T/C [17] of 93.8% and a viability, T/C (second compound 9.49 µM, first compound 0.0316 µM) of 99.8%. For the same molecule, the viability, T/C (second compound 9.49 µM, first compound 0.1 µM) was 107%, the viability, T/C [18] was 102% and the viability, T/C [19] was 90.5%. The viability, T/C [20] was 96%, the viability, T/C [21] was 99.5% and the viability, T/C (second compound 30 µM, first compound 0.0316 µM) was 93.5%. It also gave a viability, T/C (second compound 30 µM, first compound 0.1 µM) of 101%, a viability, T/C [22] of 96.2% and a viability, T/C [23] of 99.4%. It also gave a viability, T/C [24] of 86.8% and a viability, T/C [25] of 94%.

`CC(C)CC(NC(=O)C(Cc1ccccc1)NC(=O)c1cnccn1)B(O)O` (stereo unspecified) was tested, and the viability, T/C (compound 31.6 pM) was 111% and 105%, the viability, T/C (compound 0.0001 µM) was 104% and 98.9% and the viability, T/C (compound 0.000316 µM) was 102% and 98.8%. The viability, T/C (compound 0.001 µM) was 103% and 101%, the viability, T/C (compound 0.00316 µM) was 100% and 97.5% and the viability, T/C (compound 0.01 µM) was 66.4% and 69.6%. For the same molecule, the pIC50 (curve of compound) was < 8.00.

In the case of `CC(C)CC(NC(=O)C(Cc1ccccc1)NC(=O)c1cnccn1)B(O)O` (stereo unspecified) + CC(C)NCC(C(=O)N1CCN(c2ncnc3c2C(C)CC3O)CC1)c1ccc(Cl)cc1, the pIC50 [1] was < 8.00, the pIC50 [2] was < 8.00 and the pIC50 [3] was < 8.00. The pIC50 [4] was < 8.00, the pIC50 [5] was < 8.00 and the viability, T/C (second compound 0.3 µM, first compound 31.6 pM) was 112%. The viability, T/C (second compound 0.3 µM, first compound 0.0001 µM) was 94.2%, the viability, T/C (second compound 0.3 µM, first compound 0.000316 µM) was 96.6% and the viability, T/C (second compound 0.3 µM, first compound 0.001 µM) was 97.7%. It also gave a viability, T/C (second compound 0.3 µM, first compound 0.00316 µM) of 97.7%, a viability, T/C (second compound 0.3 µM, first compound 0.01 µM) of 80.3% and a viability, T/C (second compound 0.949 µM, first compound 31.6 pM) of 105%. It also gave a viability, T/C (second compound 0.949 µM, first compound 0.0001 µM) of 107%, a viability, T/C (second compound 0.949 µM, first compound 0.000316 µM) of 92.5% and a viability, T/C (second compound 0.949 µM, first compound 0.001 µM) of 105%. The viability, T/C (second compound 0.949 µM, first compound 0.00316 µM) was 93.2%, the viability, T/C (second compound 0.949 µM, first compound 0.01 µM) was 74% and the viability, T/C (second compound 3 µM, first compound 31.6 pM) was 102%. It also gave a viability, T/C (second compound 3 µM, first compound 0.0001 µM) of 98.2%, a viability, T/C (second compound 3 µM, first compound 0.000316 µM) of 93% and a viability, T/C (second compound 3 µM, first compound 0.001 µM) of 102%. It also gave a viability, T/C (second compound 3 µM, first compound 0.00316 µM) of 89.3%, a viability, T/C (second compound 3 µM, first compound 0.01 µM) of 70% and a viability, T/C (second compound 9.49 µM, first compound 31.6 pM) of 93.3%. It also gave a viability, T/C (second compound 9.49 µM, first compound 0.0001 µM) of 97.6%, a viability, T/C (second compound 9.49 µM, first compound 0.000316 µM) of 92.9% and a viability, T/C (second compound 9.49 µM, first compound 0.001 µM) of 84.4%. For the same molecule, the viability, T/C (second compound 9.49 µM, first compound 0.00316 µM) was 85.5%, the viability, T/C (second compound 9.49 µM, first compound 0.01 µM) was 69.3% and the viability, T/C (second compound 30 µM, first compound 31.6 pM) was 85.8%. The viability, T/C (second compound 30 µM, first compound 0.0001 µM) was 98.5%, the viability, T/C (second compound 30 µM, first compound 0.000316 µM) was 87.3% and the viability, T/C (second compound 30 µM, first compound 0.001 µM) was 89.2%. It also gave a viability, T/C (second compound 30 µM, first compound 0.00316 µM) of 86% and a viability, T/C (second compound 30 µM, first compound 0.01 µM) of 69.1%.

`CC(C)NCC(C(=O)N1CCN(c2ncnc3c2C(C)CC3O)CC1)c1ccc(Cl)cc1` (stereo unspecified) was tested, and the viability, T/C (compound 0.3 µM) was 101% [middle of 10 runs], the viability, T/C (compound 0.949 µM) was 94% [middle of 10 runs] and the viability, T/C (compound 3 µM) was 83.6% [middle of 10 runs]. The viability, T/C (compound 9.49 µM) was 80.9% [middle of 10 runs], the viability, T/C (compound 30 µM) was 85.8% [middle of 10 runs] and the pIC50 (compound alone, run of 02/28/2020) was < 4.52.

`CC(C)CC(NC(=O)CNC(=O)c1cc(Cl)ccc1Cl)B1OC(=O)CC(CC(=O)O)(C(=O)O)O1` (stereo unspecified) was tested, and the viability, T/C (compound 0.000316 µM) was 111% and 114%, the viability, T/C (compound 0.001 µM) was 96.4% and 98.7% and the viability, T/C (compound 0.00316 µM) was 99.3% and 98.8%. The viability, T/C (compound 0.01 µM) was 93.5% and 90.3%, the viability, T/C (compound 0.0316 µM) was 85.8% and 77.8% and the viability, T/C (compound 0.1 µM) was 62.1% and 56.6%. The pIC50 (curve of compound) was < 7.00.

In the case of `Cc1nc(NC(=O)N2CCCC2C(N)=O)sc1-c1ccnc(C(C)(C)C(F)(F)F)c1` (stereo unspecified), the viability, T/C (compound 0.0316 µM) was 108% and 109%, the viability, T/C (compound 0.1 µM) was 105% and 106% and the viability, T/C (compound 0.316 µM) was 88.8% and 87%. The viability, T/C (compound 1 µM) was 90.8% and 87.5%, the viability, T/C (compound 3.16 µM) was 90% and 80.8% and the viability, T/C (compound 10 µM) was 82.5% and 78.5%. The pIC50 (curve of compound) was < 5.00.
